This is an account of results in US20170182108A1, “FERMENTED FOOD EXTRACT COMPOSITION” (priority 2014, published 2017).

In test [1] the test system is systolic blood pressure of SHRs. Kind of test: single oral administration test to SHRs (blood pressure by tail cuff method). It is filed as in vivo, rat (spontaneously hypertensive rat. To be noted: single oral 10^−11 mol/kg, SHR; for blood pressure effect compared to the control group: measured 3, 6, 9 and 24 h after administration; for maximum decrease in systolic blood pressure: 9 h after administration, compared to the control group. Here is the method: Animal experiments were carried out according to the animal experiment guidelines of Shinshu University. In the present study, spontaneously hypertensive rats of 10-13 week-old males (SHR/NCrlCrlj, Charles River Laboratories Japan, Yokohama) were used as an experimental animal. SHRs were bred in individual cages in a breeding room controlled with a light-dark cycle of […] and a room temperature of 22-23° C. In acclimation breeding, rat standard diet (MF; Charles River Laboratories) and tap water were fed ad libitum. SHRs are a rat strain that has been isolated in 1963 by selection mating from Wistar-Kyoto rats that had been bred in the animal experimentation center of Kyoto University. They are referred to as spontaneously hypertensive rats or essential hypertensive rats; while systolic blood pressure of the separation maternal. Wistar-Kyoto rats is approximately 135 mmHg for mature males and approximately 132 mmHg for mature females, blood pressure of almost all the SHRs becomes 150 mmHg or higher at 2 months from the birth, and reaches almost a maximum value at 4-5 months, with many of the values showing 180-210 mmHg. In general, as a model animal of essential hypertension that s said to be account for approximately 90% of the hypertension in humans, SHRs have been used to elucidate pharmacological effects and food functions, and a mechanism of blood pressure rise.
Single oral administration test was carried out using male 12-week-old SHRs with a body weight of 280-320 g. After acclimation breeding for 1 week, the rats were fasted for 12 h, and a sample was given to the rats by a single oral administration. The sample to be administered was dissolved in pure water, and given by a single oral administration with a dose of 10^−11 mol/kg (b.w.) to each 6 SHRs. Sample aqueous solutions of purified acetylcholine, propionylcholine and butyrylcholine were acidic, with a pH of 4.7, 4,3, and 4.4, respectively. To the control group, pure water was administered. Changes in the systolic blood pressure and diastolic blood pressure were measured using non-invasive blood pressure measuring instrument Softron BP-98A (Softron Co., Ltd., Tokyo) by tail cuff method, before administration and at 3, 6, 9, and 24 h after administration. Results of the single oral administration test of purified acetylcholine, propionylcholine and butyrylcholine were shown in FIG. 7.

In test [2] the test system is thoracic aorta specimens of SHRs. Kind of test: measurement test of isometric tension in blood vessels (vasodilatory effect on phenylephrine-constricted ring specimens). It is filed as cell-based, rat (spontaneously hypertensive rat, SHR). The arrangement: dilation rate: dose or concentration left out as unconfirmed. To be noted: for concentration from which a vasodilatory effect / dilation reaction is shown: cumulative addition. The method, then: In the examination of each condition, concentration of the active ingredient was checked by identifying fractions showing vasodilatory effect by measurement test of isometric tension in blood vessels at each purification stage.
Thoracic aorta used for the test was removed from a male 10-12 week-old SHR; after removal of the connective tissue, it was cut into a length 2-3 mm to produce ring specimens. The resulting ring specimens were attached to an organ bus filled with Krebs solution of 37° C. (119 mM NaCl/4.7 mM KCl/1.1 mM KH2PO4/1.2 mM MgSO4/25 mM NaHCO3, pH 7.4) in which a mixed gas of 95% O2-5% CO2 was aerated, then a static tension of 1.5 g was applied (UFER UC-05A; Iwashiya Kishimoto Ika Sangyo K.K., Kyoto). Vascular tension was measured by UFER UM-203 transducer (Iwashiya Kishimoto Ika Sangyo). After 60-min incubation from the attachment, the ring specimens were constricted using a vasoconstrictor phenylephrine (final concentration of 0.30 μM). To the constricted ring specimens, commercially available acetylcholine, that is an endothelium-dependent vasodilator (final concentration of 100 μM) was added, and presence/absence of vascular endothelium was determined by presence/absence of vasodilatory effect. Then, the ring specimens were washed with Krebs solution to remove the drugs, incubated at static tension for 10 min, and again constricted by 0.30 μM phenylephrine.

Each structure is given as a SMILES string. Where two headings read alike, the source gives them in different places.

Take `CCCC(=O)OCC[N+](C)(C)C` [butyrylcholine]: in test [1], the “blood pressure effect compared to the control group” value is listed as “no significant decrease in blood pressure”. The molecule further yielded a dilation in test [2] (at the addition of 10^−4 M) of 7.14%.

What is called EC50 is the concentration that produces a half-maximal response. On to `CC(=O)OCC[N+](C)(C)C` [acetylcholine], for which the “maximum decrease in systolic blood pressure” value in test [1] is recorded as 24.7 mmHg. Also, the EC50 came to 0.0272 µM in test [2] (Rattus norvegicus, hydrochloride salt, summary sentence b69, read-out: EC50 of vasodilatory effect (unit inferred)) and 0.0272 µM in test [2] (Rattus norvegicus, hydrochloride salts, cumulative addition 10^−9 to 10^−4 M, read-out: EC50 of vasodilatory effect). The molecule further showed a maximum dilation rate in test [2] (at 10^−6 M) of 89.9%. Moreover, the dilation rate in test [2] (at the addition) was 1.52%. In test [2] (hydrochloride salts), the “concentration from which a vasodilatory effect / dilation reaction is shown” value is listed as 10^−9 M.

`CCC(=O)OCC[N+](C)(C)C` [propionylcholine]: in test [1], the “maximum decrease in systolic blood pressure” value came to 8.05 mmHg and the “blood pressure effect compared to the control group” value is reported as “significant vasodilatory effect”. The maximum dilation rate in test [2] (at 10^−4 M) is given as 95.2%. The “concentration from which a vasodilatory effect / dilation reaction is shown” value in test [2] (hydrochloride salts) is 10^−7 M. Besides, the EC50 in test [2] (hydrochloride salts, cumulative addition 10^−9 to 10^−4 M, read-out: EC50 of vasodilatory effect) was 2.27 µM.
